Laboratory results as given in patent US10308662B2, “Thienopyranones as kinase and epigenetic inhibitors” (SignalRx Pharmaceuticals, Inc., priority 2014, dated 2019).

Legend:
BRD4 = BRD4 (Homo sapiens, UniProt O60885); test: BRD4 inhibition assay (region not specified); type: binding
Protocol: The activity of a compound of the invention as an inhibitor of a bromodomain-containing protein, such as a BET protein, such as BRD2, BRD3, BRD4, and/or BRDT, or an isoform or mutant thereof, may be determined in vitro, in vivo, or in a cell line. In vitro assays include assays that determine inhibition of bromodomain-containing proteins. Alternatively, inhibitor binding may be determined by running a competition experiment where a provided compound is incubated with a bromodomain-containing protein, such as a BET protein bound to known ligands, labeled or unlabeled. For example, bromodomain inhibition can be determined in vitro using Alpha Screen Technology (http://www.reactionbiology.com/webapps/site/NewsPDFs/Bromodomain%20Assay%20Platform%20for%20Drug%20Screening%20and%20Discovery.pdf). […] Bromodomain inhibition may also be predicted by in silico modeling as described below in the Examples.
Computational modeling was performed using the commercially available FlexX (http://www.biosolveit.de/FlexX/download/flexx_brochure.pdf) software tools. […] It should be noted that the more negative the number or value of the docking score is, the stronger is the predicted binding energy at the BRD4 site that recognizes the acetyl lysine of chromatin.

[1] = system: NB9464 murine neuroblastoma tumor; test: NB9464 tumor growth in nude mice; type: in vivo; settings: 50 mg/kg, 3 days a week for 1.5 weeks, intra-peritoneal
Description: MYCN-overexpressing murine neuroblastoma cells (NB9464) were transplanted into nude mice, grown for 24 days and randomized into two groups.

NB9464 cell line = test: Cytotoxicity / proliferation study, NB9464; type: cell-based, murine; settings: Mus musculus
Cyclin D1 mRNA = test: Real-time PCR of Cyclin D1 mRNA in IMR32 cells; type: cell-based; settings: IMR32, 5 μM, 24 hrs
[2] = system: B16 F10 luciferase melanoma cells; test: B16 melanoma mouse model of metastasis; type: in vivo, mice; settings: 50 mg/kg every other day, 15 days
Description: The luciferase signal was monitored every third day by injecting luciferin, until the lungs were harvested on day 15 (n=5). […] Lungs extracted from these animals are shown below the luciferase imaged pictures supporting the repression of tumor growth in Cmpd 28-treated mice.

N-MYC = test: Western blot of N-MYC in SKNBE(2) cells; type: cell-based, human; settings: 24 hrs treatment, 50 ng/ml IGF stimulation
Protocol: (§1) Cells were stimulated with 50 ng/ml IGF for 30 min and used for lysate preparation. Proteins were quantitated by the BCA protein assay (Pierce). Equal amounts of protein were resolved by polyacrylamide gels, transferred to nitrocellulose membrane and probed by Western blot with the following primary antibodies: p-AKT(Ser473), AKT (Cell Signaling Technologies), N-MYC, CyclinD1 and β-actin (Santa Cruz Biotechnology).

[3] = system: MYCN-dependent MB patient derived xenograft (PDX) cell line; test: Cytotoxicity / proliferation study, PDX MB; type: cell-based; settings: Homo sapiens
N-myc (MYCN) mRNA = test: Real-time PCR of N-myc mRNA in IMR32 cells; type: cell-based; settings: IMR32, 5 μM, 24 hrs
p-AKT(Ser473) = test: Western blot of pAKT in SKNBE(2) cells; type: cell-based, human; settings: 24 hrs treatment, 50 ng/ml IGF stimulation
Protocol: as §1

MYCN promoter region = test: Brd4 chromatin precipitation with quantitative PCR of MYCN promoter in SKNBE(2) cells; type: cell-based, human; settings: 24 hours exposure
Protocol: MYCN amplified SKNBE(2) cells were exposed to inhibitors for 24 hours then chromatin was precipitated with Brd4 (rabbit polyclonal antibody) along with rabbit IgG as a negative control (IgG). Precipitated chromatin was analyzed for the MYCN gene (2 sites within the MYCN promoter region) by quantitative PCR and enrichment is shown as the percentage of total input DNA (FIG. 4). The negative control region primers amplify within a gene desert region approximately 1 Mb away from MYCN (MYC-N NR). Error bars represent±SEM of triplicate data. P<0.05 as compared to positive control (paired t-test).

Panc02 tumor cells = test: Orthotopic Panc02 pancreatic model of spontaneous metastasis; type: in vivo, mice; settings: 50 mg/kg three times a week
Protocol: Panc02 (1×10^6) tumor cells were injected into the pancreas of WT mice (n=18). After 20 days, mice were randomized into two groups. One group was treated with DMSO (control) and the other group was treated with 50 mg/kg of SF2523, three times a week. Tumors were removed 35 days after tumor implantation. Values are mean±SEM (n=8 in each gp; P<0.01; pair wise two-sided Student's t test). […] Values are mean±SEM (n=7; P<0.01; pair wise two-sided Student's t test). The data are representative of three independent experiments performed.

[4] = system: SKNBE(2) neuroblastoma cell line; test: Cytotoxicity / proliferation study, SKNBE(2); type: cell-based; settings: Homo sapiens, SKNBE2; SKNBE(2) cell line

O=c1cc(N2CCOCC2)oc2c(-c3ccc4c(c3)OCCO4)csc12 [Cmpd 28]
BRD4 inhibition (BRD4): showed activity against BRD4 regions 1 and 2 | tolerability (body weight) [1]: well tolerated | tumor growth compared to vehicle [1]: significantly blocked tumor growth | IC50 (NB9464 cell line): 8.7 µM | Cyclin D1 mRNA expression (Cyclin D1 mRNA): reducing mRNA expression | luciferase bioimaging of cancer cells [2]: little evidence of the presence of cancer cells | reduction in metastatic nodules ([2]; lungs): 60% | MYCN quantity by Western blot (N-MYC): decreased MYCN | IC50 [3]: 3.6 µM | MYCN mRNA expression (N-myc (MYCN) mRNA): inhibits MYCN expression | pAKT level by Western blot (p-AKT(Ser473)): decreased MYCN and pAKT | MYCN expression (Brd4-precipitated chromatin, MYCN promoter PCR) (MYCN promoter region): significantly repressed MYCN expression | spontaneous metastasis (Panc02 tumor cells): blocks spontaneous metastasis | IC50 [4]: 7.6 µM
